Reference: the supplement of paper PMC10307832

Experiments:
Assay in all cases: relative viability (nuclei count vs DMSO), 5 days (fraction); higher = more cells survive
Sulindac + OSI-027 = compound: CC1=C(CC(=O)O)c2cc(F)ccc2/C1=C\c1ccc([S+](C)[O-])cc1 [Sulindac] + COc1cccc2cc(-c3nc([C@H]4CC[C@H](C(=O)O)CC4)n4ncnc(N)c34)[nH]c12 [OSI-027] (partner 0.5 µM)
Method in brief: (§1)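 The day after seeding in 1536-well plates, lung cancer cell lines were treated by pin tool with a single drug, or with a fixed anchor-drug dose together with five library-drug doses (not always all listed) in √10 steps. After 5 days, a combined fix-and-stain solution (final 0.05% Triton X-100, 1% formaldehyde, 1 ug/ml Hoechst) was added. Nuclei counted on 4× images gave relative viability as treated counts over vehicle counts, reported as the median of duplicate plates.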

[1] = compound: O=c1[nH]cc(F)c(=O)[nH]1 [5-Fluorouracil] + C[C@@H](Oc1cc(-c2cnn(C3CCNCC3)c2)cnc1N)c1c(Cl)ccc(F)c1Cl [Crizotinib] (partner 1 µM)
Method in brief: as §1

[2] = compound: O=c1[nH]cc(F)c(=O)[nH]1 [5-Fluorouracil] + O=C(CCCCCCC(=O)Nc1ccccc1)NO [Vorinostat] (partner 1 µM)
Method in brief: as §1

[3] = compound: CN[C@@H]1C[C@H]2O[C@@](C)([C@@H]1OC)n1c3ccccc3c3c4c(c5c6ccccc6n2c5c31)C(=O)NC4 [Staurosporine] + Cc1cc(Nc2cc(N3CCN(C)CC3)nc(Sc3ccc(NC(=O)C4CC4)cc3)n2)n[nH]1 [Tozasertib] (partner 0.1 µM)
Method in brief: as §1

Row | Cell Line | relative viability (Sulindac + OSI-027; first compound 0.08 µM) | relative viability (Sulindac + OSI-027; first compound 0.253 µM) | relative viability (Sulindac + OSI-027; first compound 0.8 µM) | relative viability (Sulindac + OSI-027; first compound 2.53 µM) | relative viability (Sulindac + OSI-027; first compound 8 µM) | relative viability ([1]; first compound 0.02 µM) | relative viability ([1]; first compound 0.2 µM) | relative viability ([1]; first compound 0.6325 µM) | relative viability ([1]; first compound 2 µM) | relative viability ([2]; first compound 0.02 µM) | relative viability ([2]; first compound 0.2 µM) | relative viability ([2]; first compound 0.6325 µM) | relative viability ([2]; first compound 2 µM) | relative viability ([3]; first compound 0.005 µM) | relative viability ([3]; first compound 0.01581 µM) | relative viability ([3]; first compound 0.05 µM) | relative viability ([3]; first compound 0.1581 µM) | relative viability ([3]; first compound 0.5 µM)
1 | NCI-H838 | 0.382 | 0.424 | 0.367 | 0.358 | 0.388 | 0.873 | 0.809 | 0.498 | 0.297 | 0.716 | 0.637 | 0.404 | 0.266 | 0.218 | 0.156 | 0.179 | 0.164 | 0.143
2 | NCI-H2342 | 0.591 | 0.578 | 0.546 | 0.618 | 0.694 | – | – | – | – | 0.903 | 0.86 | 0.741 | 0.616 | 0.406 | 0.495 | 0.295 | 0.305 | 0.278
3 | EMC-BAC-2 | 0.375 | 0.407 | 0.311 | 0.371 | 0.473 | 0.871 | 0.788 | 0.764 | 0.767 | 0.448 | 0.566 | 0.463 | 0.226 | 0.181 | 0.138 | 0.19 | 0.192 | 0.181
4 | NCI-H1355 | 0.403 | 0.454 | – | 0.38 | 0.393 | 1.04 | 0.672 | 0.373 | 0.266 | 0.625 | 0.49 | 0.264 | 0.243 | 0.577 | 0.286 | 0.252 | 0.188 | 0.151
5 | NCI-H2347 | 0.398 | 0.363 | – | 0.301 | 0.511 | 0.78 | 0.534 | 0.563 | 0.479 | 0.64 | 0.41 | 0.41 | 0.431 | 0.514 | 0.357 | 0.196 | 0.268 | 0.219
6 | NCI-H1299 | – | – | – | – | – | 0.952 | 0.976 | 0.943 | 0.682 | – | – | – | – | – | – | – | – | –
7 | SW 900 | – | 0.566 | – | 0.42 | 0.555 | – | – | – | – | 0.628 | 0.575 | 0.562 | 0.4 | 0.541 | 0.239 | 0.246 | 0.206 | 0.162
8 | NCI-H1792 | 0.848 | 0.884 | – | 0.815 | 0.899 | 1.07 | 0.943 | 0.31 | 0.164 | – | – | – | – | – | – | – | – | –
9 | NCI-H1703 | – | – | – | – | – | 0.83 | 0.564 | 0.378 | 0.479 | – | – | – | – | – | – | – | – | –
10 | EBC-1 | – | – | – | – | – | 0.177 | 0.214 | 0.206 | 0.202 | – | – | – | – | – | – | – | – | –
11 | NCI-H1395 | 0.668 | 0.72 | 0.675 | 0.58 | 0.77 | – | – | – | – | 0.728 | 0.755 | 0.645 | 0.756 | 0.705 | 0.614 | 0.37 | 0.331 | 0.265
12 | IA-LM | – | – | – | – | – | 1.03 | 0.401 | 0.254 | 0.289 | 0.906 | 0.659 | 0.274 | 0.25 | – | – | – | – | –
13 | NCI-H1793 | 0.218 | 0.359 | 0.236 | 0.243 | 0.258 | – | – | – | – | 0.801 | 0.814 | 0.723 | 0.502 | 0.335 | – | 0.299 | 0.182 | 0.186
